According to patent US20140205681A1, “HYDROGEN-BOND SURROGATE PEPTIDES AND PEPTIDOMIMETICS FOR p53 REACTIVATION” (New York University, priority 2013, published 2014):

What was measured:
[1] = test system: p300, p53, p21, miR-34a, miR-200c; assay: Quantitative real-time PCR of p300, p53, p21, miR-34a and miR-200c expression; assay type: cell-based, human
Procedure: Cells were extracted for total RNA using the TRIzol® reagent (Invitrogen) or TaqMan PreAmp Cells-to-CT kit (Applied Biosystems). Expression of p300, p53, p21, miR-34a and miR-200c were determined using the Applied Biosystems 7900HT Fast Real-Time PCR System with validated TaqMan gene expression assays (Applied Biosystems). p53, p300, and p21 expression were normalized to GADPH and miR-34a and miR-200c expression were normalized to RNU44 using the ΔΔCt method.

UMSCC74A cells [2] = assay: Apoptosis (Annexin V FACS); assay type: cell-based, human; conditions: overexpression of CH1, UMSCC74A cells
Procedure: (§1) Cell proliferation was assessed using the MTT reagent (Roche Molecular Biochemicals, Nutley, N.J.) to detect metabolic active cells. Absorbance was measured at 570 nm in the Spectra Max 190 ELISA reader (Molecular Devices, Sunnyvale, Calif.) after overnight incubation. For clonogenic survival, 200 cells per well were plated in complete growth media and allowed to grow until visible colonies were formed (14 days). Cell colonies were fixed with cold methanol, stained with 0.25% crystal violet in 25% methanol, washed, and air dried. For apoptosis, cells were harvested, washed with cold PBS, and co-stained with Annexin V and propidium iodide according to the manufacturer's protocol (ApoAlert Annexin V-FITC Apoptosis Kit; Clontech). Apoptotic cells were analyzed using BD FACS Calibur (BD Biosciences Corporation, Franklin Lakes, N.J.) at The Ohio State University Comprehensive Cancer Center Analytical Cytometry Core.

UPCI:SCC090 cells [3] = assay: Apoptosis (Annexin V FACS); assay type: cell-based, human; conditions: CH1 overexpression
Procedure: as §1

UMSCC47 cells [4] = assay: Apoptosis (Annexin V FACS); assay type: cell-based, human; conditions: CH1 overexpression
Procedure: as §1

UPCI:SCC090 cells [5] = assay: Cell proliferation (MTT); assay type: cell-based, human; conditions: UPCI:SCC090/CH1 cells
Procedure: as §1

UMSCC47 cells [6] = assay: Cell proliferation (MTT); assay type: cell-based, human; conditions: UMSCC47/CH1 cells
Procedure: as §1

MDM2-p300 = target: T1, MDM2-p300 (Homo sapiens, UniProt Q09472); assay: Immunoprecipitation of MDM2-p300 association; assay type: cell-based; conditions: introduction of CH1, UMSCC74A cells
T1 construct: Cell lysates were extracted, immunoprecipitated with anti-p300 antibody, and immunoblotted with anti-MDM2; endogenous in cells; host or cells: UMSCC74A (HPV-negative, p53 wildtype HNSCC)

HPV16 E6-p300 = target: T2, HPV16 E6-p300 (Homo sapiens, UniProt Q09472); assay: Immunoprecipitation of HPV16 E6-p300 association; assay type: cell-based; conditions: exogenous CH1; UMSCC47 and UPCI:SCC090 cells
T2 construct: Cell lysates were extracted, immunoprecipitated with anti-p300 antibody, and immunoblotted with anti-E6 antibody; endogenous in cells; host or cells: UMSCC47 (HPV16-positive HNSCC)
Procedure: Cells were lysed with NP buffer [50 mM Tris (pH 8.0), 150 mM NaCl, 0.5% deoxycholate, 0.1% SDS, and 1.0% NP-40] containing 1× Protease Inhibitor Cocktail (Roche, Switzerland) at 4° C. with gentle rocking for 15 min. The supernatant was pre-cleared to block nonspecific binding with 50 μL protein A/G Agarose beads (Pierce Biotechnology) that had been pre-washed with NP buffer before use. Equal amounts of anti-E6 antibody (Abcam), anti-p300 antibody (Millipore), or IgG antibody (Cell Signaling) were added to the respective samples. After 4 hours incubation at 4° C., 50 μL pre-washed protein A/G-agarose beads were added to each tube and immunoprecipitation was performed by rocking overnight at 4° C. The immunoprecipitated complexes were washed with NP buffer and then eluted using 2×SDS sample buffer. Eluted sample and 10% of input were resolved by SDS-PAGE for Western blot analysis with anti-E6, anti-p300, or anti-V5 antibodies.

UMSCC74A cells [7] = assay: Clonogenic survival (crystal violet); assay type: cell-based, human; conditions: overexpression of CH1, UMSCC74A cells
Procedure: as §1

UPCI:SCC090 cells [8] = assay: Clonogenic survival (crystal violet); assay type: cell-based, human; conditions: UPCI:SCC090/CH1 cells
Procedure: as §1

UMSCC47 cells [9] = assay: Clonogenic survival (crystal violet); assay type: cell-based, human; conditions: UMSCC47/CH1 cells
Procedure: as §1

p53 [10] = assay: p53 transcriptional activity (Cignal p53 Firefly/Renilla luciferase reporter); assay type: cell-based, human
Procedure: Cells were transfected with 100 ng of Cignal p53 reporter (SABiosciences, Valencia, Calif.) using Lipofectamine 2000. Cignal p53 reporter contains tandem repeats of the p53 consensus transcriptional response element. After 48 hours, cells were washed with cold PBS, lysed in passive lysis buffer (Promega), and measured for Firefly/Renilla dual luciferase activities in a luminometer using the Dual-Light System (Applied Biosystems, Foster City, Calif.). […] to control for transfection efficiency. A modification to the protocol was used for compound treatment. UMSCC47 cells were transfected with 100 ng of Cignal p53 reporter. After 24 hours, cells were treated with vehicle, CH1iB (10 μM), cis-platinum (10 μM), or combination of CH1iB (10 μM) and cis-platinum (10 μM) and measured for Firefly/Renilla dual luciferase activities 24 hours post-treatment.

UMSCC47 cells [11] = assay: Tumorsphere formation; assay type: cell-based, human; conditions: overexpression of CH1, UMSCC47 cells
Procedure: Cells were harvested and seeded in a serum-free defined medium consisting of KSF medium supplemented with epidermal growth factor, basic fibroblast growth factor, insulin, and hydrocortisone in low-attachment plates (Corning Incorporated, Corning, N.Y.) for tumorspheres. Tumorsphere formation efficiency was calculated as the number of tumorspheres ([…] in diameter) formed in 7 days divided by the original number of cells seeded. Tumorsphere diameter was measured using NIS-Elements software.

p53 [12] = assay: Western blot of total and acetylated[K382] p53 levels; assay type: cell-based, human
Procedure: Whole cell lysates were mixed with Laemmli loading buffer, boiled, separated by SDS-PAGE, and transferred to a nitrocellulose membrane. Subsequently, immunoblot analyses were performed using antibodies specific to V5 (Invitrogen), p53 (sc-126, Santa Cruz Biotechnology, Santa Cruz, Calif.), or acetylated[[…]]-p53 (2525, Cell Signaling Technology). The signal was developed using the SuperSignal Western Blotting Kit (Pierce, Rockford, Ill.).

[13] = CH1 overexpressing UMSCC47 and UPCI:SCC090 cells

T1 sequence (Q09472 whole entry): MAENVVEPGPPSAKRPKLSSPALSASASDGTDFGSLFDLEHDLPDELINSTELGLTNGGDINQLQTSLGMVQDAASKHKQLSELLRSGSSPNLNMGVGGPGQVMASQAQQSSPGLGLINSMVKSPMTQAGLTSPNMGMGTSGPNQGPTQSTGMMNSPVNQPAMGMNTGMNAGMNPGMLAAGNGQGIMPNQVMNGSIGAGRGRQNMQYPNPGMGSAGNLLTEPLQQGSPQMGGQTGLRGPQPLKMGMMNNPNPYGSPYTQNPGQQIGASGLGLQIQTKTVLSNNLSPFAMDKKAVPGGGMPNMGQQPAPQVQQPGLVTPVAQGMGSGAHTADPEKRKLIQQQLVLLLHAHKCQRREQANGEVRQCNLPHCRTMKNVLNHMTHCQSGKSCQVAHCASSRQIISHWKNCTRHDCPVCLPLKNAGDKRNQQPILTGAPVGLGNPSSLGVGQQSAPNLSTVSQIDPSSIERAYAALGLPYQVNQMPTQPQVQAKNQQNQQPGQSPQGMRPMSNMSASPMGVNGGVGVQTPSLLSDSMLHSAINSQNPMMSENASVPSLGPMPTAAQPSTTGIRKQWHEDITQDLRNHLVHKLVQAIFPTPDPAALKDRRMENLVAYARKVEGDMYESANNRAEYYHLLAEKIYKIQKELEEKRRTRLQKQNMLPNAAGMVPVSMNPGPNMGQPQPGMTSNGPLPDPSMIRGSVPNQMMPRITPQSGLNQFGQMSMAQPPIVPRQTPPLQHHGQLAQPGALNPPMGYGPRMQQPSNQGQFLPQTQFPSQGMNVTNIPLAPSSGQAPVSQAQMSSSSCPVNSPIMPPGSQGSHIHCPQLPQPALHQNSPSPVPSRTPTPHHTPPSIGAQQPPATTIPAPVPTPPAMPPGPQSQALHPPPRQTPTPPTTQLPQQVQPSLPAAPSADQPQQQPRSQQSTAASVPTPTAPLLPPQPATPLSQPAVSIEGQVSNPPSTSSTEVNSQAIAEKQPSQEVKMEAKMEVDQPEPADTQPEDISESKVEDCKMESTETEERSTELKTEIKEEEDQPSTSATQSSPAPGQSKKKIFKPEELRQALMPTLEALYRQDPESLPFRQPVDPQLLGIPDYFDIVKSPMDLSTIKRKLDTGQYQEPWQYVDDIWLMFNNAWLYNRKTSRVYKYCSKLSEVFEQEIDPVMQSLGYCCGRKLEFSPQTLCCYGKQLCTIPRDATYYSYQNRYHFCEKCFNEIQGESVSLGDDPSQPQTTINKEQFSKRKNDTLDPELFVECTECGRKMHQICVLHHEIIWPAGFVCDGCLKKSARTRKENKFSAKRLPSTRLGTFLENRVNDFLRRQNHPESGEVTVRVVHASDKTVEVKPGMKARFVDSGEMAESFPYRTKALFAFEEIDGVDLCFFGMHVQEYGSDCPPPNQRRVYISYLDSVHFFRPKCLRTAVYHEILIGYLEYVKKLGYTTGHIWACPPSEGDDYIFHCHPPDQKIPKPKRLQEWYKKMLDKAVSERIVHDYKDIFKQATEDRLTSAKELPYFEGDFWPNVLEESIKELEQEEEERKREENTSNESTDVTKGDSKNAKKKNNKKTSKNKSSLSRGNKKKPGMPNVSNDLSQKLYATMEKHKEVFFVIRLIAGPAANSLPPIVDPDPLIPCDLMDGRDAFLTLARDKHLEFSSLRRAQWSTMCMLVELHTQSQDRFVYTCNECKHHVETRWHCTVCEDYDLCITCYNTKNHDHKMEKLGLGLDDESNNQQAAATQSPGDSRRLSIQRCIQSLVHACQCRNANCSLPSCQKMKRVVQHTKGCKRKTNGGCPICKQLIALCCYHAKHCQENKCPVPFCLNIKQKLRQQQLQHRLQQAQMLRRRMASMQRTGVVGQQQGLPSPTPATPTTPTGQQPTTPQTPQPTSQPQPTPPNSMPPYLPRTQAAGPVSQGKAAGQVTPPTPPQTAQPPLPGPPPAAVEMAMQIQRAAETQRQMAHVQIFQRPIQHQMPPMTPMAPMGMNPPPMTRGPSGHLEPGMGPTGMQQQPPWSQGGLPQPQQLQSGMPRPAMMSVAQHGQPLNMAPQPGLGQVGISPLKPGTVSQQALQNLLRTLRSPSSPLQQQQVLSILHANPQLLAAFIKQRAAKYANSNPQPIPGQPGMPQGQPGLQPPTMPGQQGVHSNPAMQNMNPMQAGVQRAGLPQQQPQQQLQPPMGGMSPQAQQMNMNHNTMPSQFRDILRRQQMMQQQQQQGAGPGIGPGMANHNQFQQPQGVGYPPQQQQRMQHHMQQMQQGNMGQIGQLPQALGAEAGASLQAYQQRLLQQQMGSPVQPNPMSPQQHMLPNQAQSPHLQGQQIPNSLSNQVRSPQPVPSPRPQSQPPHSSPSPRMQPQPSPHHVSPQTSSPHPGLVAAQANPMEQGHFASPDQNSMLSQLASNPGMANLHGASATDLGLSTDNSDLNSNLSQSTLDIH
T2 sequence (Q09472 whole entry): as above

Q: What does the source list for “CH1: CH1 domain of p300 ectopically expressed from pcDNA3.1/CH1 in stably transfected HNSCC cells”?
A: miR-34a expression, increased by ([1]; UMSCC47/CH1 cells): 323%; miR-200c expression, increased by ([1]; UMSCC47/CH1 cells): 80%; p21 expression, increased by ([1]; UMSCC47/CH1 cells): 114%; miR-34a expression, increased by ([1]; UPCI:SCC090/CH1 cells): 134%; miR-200c expression, increased by ([1]; UPCI:SCC090/CH1 cells): 49%; p21 expression, increased by ([1]; UPCI:SCC090/CH1 cells): 39%; p53 and p300 expression ([1]; overexpression of CH1, UMSCC47 and UPCI:SCC090): no effect; apoptosis, increased by (UMSCC74A cells [2]): 95%; apoptosis, increased by (UPCI:SCC090 cells [3]): 27%; apoptosis, increased by (UMSCC47 cells [4]): 60%; cell proliferation, reduced by (UPCI:SCC090 cells [5]): 11%; cell proliferation, reduced by (UMSCC47 cells [6]): 20%; interaction between p300 and MDM2 (MDM2-p300): disrupted; association between E6 and p300 (HPV16 E6-p300): reduce the association between E6 and p300; clonogenic survival, inhibited by (UMSCC74A cells [7]): 70%; clonogenic survival, reduced by (UPCI:SCC090 cells [8]): 58%; clonogenic survival, reduced by (UMSCC47 cells [9]): 55%; p53 transcription activity, elevated by (p53 [10]; UMSCC47/CH1 cells vs empty vector): 85%; p53 transcription activity, elevated by (p53 [10]; UMSCC74A/CH1 vs UMSCC74A/empty cells): 68%; p53 transcription activity, elevated by (p53 [10]; UPCI:SCC090/CH1 cells vs empty vector): 50%; tumorsphere diameter, reduced by (UMSCC47 cells [11]): 25%; tumorsphere formation efficiency, inhibited by (UMSCC47 cells [11]): 42%; acetylated p53 (p53 [12]; [13]): increase; total p53 (p53 [12]; [13]): accumulation; total and acetylated p53 (p53 [12]; ectopic expression of CH1, HPV-negative UMSCC74A cells): increased
